Test results published in PubChem BioAssay AID1963830 (Molecular Pharmacology Branch, DTP, NCI, 2024).
Where “and” joins values, the source holds several entries; their conditions need not be identical. Equal values may be shown once.

Tested on: 922993-354-T-J3-PDC complex spheroid viability
Assay: Anticancer human tumor 922993-354-T-J3-PDC patient-derived endometrial carcinoma cell line growth inhibition [POLQ]
Details: for viability, T/C: stronger effect = lower value
Procedure: Multicellular complex tumor spheroid response to Polymerase (POL) inhibitors (novobiocin, ART-558, RP6685) in combination with a variety of drugs and investigational agents in selected tumor cell lines
The POL inhibitors (novobiocin, ART-558, and RP6685) were evaluated both individually and in combination with standard of care and investigational anticancer small molecules within a complex spheroid model of solid tumors. . Complex spheroids include a stromal component modeled by human endothelial cells (HUVEC) and fibroblasts modeled by human mesenchymal stem cells (MSCs). The concentration ranges selected for each drug and investigational agent were based upon clinically achievable concentrations if the clinical Cmax of the agent was known.
Compounds. The drugs and investigational agents: novobiocin (NSC847541), ART-558 (NSC835418), RP-6685 (NSC848927), peposertib (NSC802822), ceralasertib (NSC780249), elimusertib (NSC800525), camonsertib (NSC841442), AZD-1390 (NSC803789), olaparib (NSC753686), talazoparib (NSC767125), rucaparib (NSC756644), sotorasib (NSC818433), MRTX-1133 (NSC836407), SN-38 (NSC673596), topotecan (NSC609699), epotoside (NSC141540), doxorubicin (NSC123127), gemcitabine (NSC613327), 5-fluorouracil (NSC19893), paclitaxel (NSC125973), vemurafenib (NSC761431), MSA-2 (NSC828583), SN-011 (NSC837082), adavosertib (NSC754352), prexasertib (NSC758257), carboplatin (NSC241240) and oxaliplatin (NSC266046), were obtained from the National Cancer Institute (NCI) Developmental Therapeutics Program Chemical Repository (21). The FDA-approved anticancer drug set is available from the Developmental Therapeutics Program at https://dtp.cancer.gov/organization/dscb/obtaining/. […] The stock solutions were prepared in dimethyl sulfoxide (DMSO, Sigma-Aldrich, St. Louis, MO, cat. D2650), except for the platinum compounds which were prepared in saline (Quality Biological, Gaithersburg, MD, cat. 114-055-101), at 800-fold the tested concentration and stored at -70 degrees C prior to their use. All drugs and investigational agents were tested over a range starting from a high concentration at or near the clinical Cmax and decreasing in half-log increments. If the clinical Cmax for an agent had not been determined, the highest concentration tested was 10 microM, except for SN-38, which was tested at a high concentration of 1 microM.
Cell Culture. All cells were maintained in an incubator at 37 degrees C and 5% CO2 with 95% humidity. The PDC lines were cultured according to standard operating procedures established by the NCI PDMR (https://pdmr.cancer.gov). Table 3 of the manuscript, lists the cell lines along with the number of the three cell types plated to form the mct-spheroids and media for tumor cell growth. After thawing, all PDC lines, except 997537-175-T-J1-PDC and 415267-285-R-J2-PDC, were cultured in Matrigel-coated flasks prepared with a working solution of 1X Ham's F-12 nutrient mix, without supplementation (Thermo Fisher Scientific, cat. 11765054), 100 U/mL penicillin-streptomycin (Thermo Fisher Scientific, cat. 15140122), and 2.5% Matrigel (Corning Inc., Corning, NY, cat. 354248) for the first three passages. The two PDC lines 997537-175-T-J1-PDC and 415267-285-R-J2-PDC were cultured on uncoated flasks. The 857933-349-R-J2-PDC line was cultured in 6C/Colon 1B media containing advanced DMEM/F-12 (Thermo Fisher Scientific, cat. 12634028), 10 mM HEPES (Thermo Fisher Scientific, cat. 15630080), 1X GlutaMAX supplement (Thermo Fisher Scientific, cat. 35050061), 0.1 mg/mL primocin (InvivoGen, San Diego, CA, cat. ant-pm-2), 10% defined fetal bovine serum, heat inactivated (HyClone Laboratories Inc., Logan, UT, cat. SH30070.03HI), 50% L-WRN conditioned media (ATCC, cat. CRL-3276), 1.25 mM N-Acetyl-L-cysteine (Sigma-Aldrich, cat. A9165), 10 mM nicotinamide (Sigma-Aldrich, cat. N0636), 1X B-27 supplement (Thermo Fisher Scientific, cat. 17504044), 1X N-2 supplement (Thermo Fisher Scientific, cat. […]

[1] = curve of first compound, second compound 0.0316 µM
[2] = curve of first compound, second compound 0.1 µM
[3] = curve of first compound, second compound 0.316 µM
[4] = curve of first compound, second compound 1 µM
[5] = curve of first compound, second compound 3.16 µM
[6] = curve of first compound, second compound 10 µM
[7] = second compound 0.0316 µM, first compound 0.0316 µM
[8] = second compound 0.0316 µM, first compound 0.1 µM
[9] = second compound 0.0316 µM, first compound 0.316 µM
[10] = second compound 0.0316 µM, first compound 1 µM
[11] = second compound 0.0316 µM, first compound 3.16 µM
[12] = second compound 0.0316 µM, first compound 10 µM
[13] = second compound 0.1 µM, first compound 0.0316 µM
[14] = second compound 0.1 µM, first compound 0.1 µM
[15] = second compound 0.1 µM, first compound 0.316 µM
[16] = second compound 0.1 µM, first compound 1 µM
[17] = second compound 0.1 µM, first compound 3.16 µM
[18] = second compound 0.1 µM, first compound 10 µM
[19] = second compound 0.316 µM, first compound 0.0316 µM
[20] = second compound 0.316 µM, first compound 0.1 µM
[21] = second compound 0.316 µM, first compound 0.316 µM
[22] = second compound 0.316 µM, first compound 1 µM
[23] = second compound 0.316 µM, first compound 3.16 µM
[24] = second compound 0.316 µM, first compound 10 µM
[25] = second compound 1 µM, first compound 0.0316 µM
[26] = second compound 1 µM, first compound 0.1 µM
[27] = second compound 1 µM, first compound 0.316 µM
[28] = second compound 1 µM, first compound 1 µM
[29] = second compound 1 µM, first compound 3.16 µM
[30] = second compound 1 µM, first compound 10 µM
[31] = second compound 3.16 µM, first compound 0.0316 µM
[32] = second compound 3.16 µM, first compound 0.1 µM
[33] = second compound 3.16 µM, first compound 0.316 µM
[34] = second compound 3.16 µM, first compound 1 µM
[35] = second compound 3.16 µM, first compound 3.16 µM
[36] = second compound 3.16 µM, first compound 10 µM
[37] = second compound 10 µM, first compound 0.0316 µM
[38] = second compound 10 µM, first compound 0.1 µM
[39] = second compound 10 µM, first compound 0.316 µM
[40] = second compound 10 µM, first compound 1 µM
[41] = second compound 10 µM, first compound 3.16 µM
[42] = second compound 10 µM, first compound 10 µM
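Note: spheroids exposed to the agents for one week.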
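Throughout, for viability, T/C: 100% = DMSO vehicle control wells.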

SMILES: C=CC(=O)N1CCN(c2nc(=O)n(-c3c(C)ccnc3C(C)C)c3nc(-c4c(O)cccc4F)c(F)cc23)C(C)C1 (stereo not given) + COC1C(OC(N)=O)C(O)C(Oc2ccc3c(O)c(NC(=O)c4ccc(O)c(CC=C(C)C)c4)c(=O)oc3c2C)OC1(C)C
- IC50 [1]: > 10 µM
- IC50 [2]: > 10 µM
- IC50 [3]: > 10 µM
- IC50 [4]: > 10 µM
- IC50 [5]: > 10 µM
- IC50 [6]: > 10 µM
- viability, T/C [7]: 102%
- viability, T/C [8]: 94.8%
- viability, T/C [9]: 98.9%
- viability, T/C [10]: 101%
- viability, T/C [11]: 92.8%
- viability, T/C [12]: 84.1%
- viability, T/C [13]: 98.9%
- viability, T/C [14]: 107%
- viability, T/C [15]: 93.3%
- viability, T/C [16]: 91.4%
- viability, T/C [17]: 88.3%
- viability, T/C [18]: 97.6%
- viability, T/C [19]: 102%
- viability, T/C [20]: 101%
- viability, T/C [21]: 103%
- viability, T/C [22]: 96.5%
- viability, T/C [23]: 96.2%
- viability, T/C [24]: 99.6%
- viability, T/C [25]: 101%
- viability, T/C [26]: 97.5%
- viability, T/C [27]: 97.4%
- viability, T/C [28]: 98.6%
- viability, T/C [29]: 93%
- viability, T/C [30]: 104%
- viability, T/C [31]: 102%
- viability, T/C [32]: 94.2%
- viability, T/C [33]: 95.9%
- viability, T/C [34]: 92%
- viability, T/C [35]: 97.4%
- viability, T/C [36]: 101%
- viability, T/C [37]: 85.8%
- viability, T/C [38]: 88.4%
- viability, T/C [39]: 89.8%
- viability, T/C [40]: 85.9%
- viability, T/C [41]: 88.3%
- viability, T/C [42]: 85%

SMILES: CC1COCCN1c1cc(C2(S(C)(=N)=O)CC2)nc(-c2ccnc3[nH]ccc23)n1 (stereo not given) + Nc1ccc(C#CCN(C(=O)Cc2ncc(C(F)(F)F)cc2C(F)(F)F)c2ccc(F)cc2)nn1
- IC50 [1]: > 10 µM
- IC50 [2]: > 10 µM
- IC50 [3]: > 10 µM
- IC50 [4]: > 10 µM
- IC50 [5]: > 10 µM
- IC50 [6]: 6.37 µM
- viability, T/C [7]: 104%
- viability, T/C [8]: 106%
- viability, T/C [9]: 98.7%
- viability, T/C [10]: 106%
- viability, T/C [11]: 95.5%
- viability, T/C [12]: 88.5%
- viability, T/C [13]: 107%
- viability, T/C [14]: 105%
- viability, T/C [15]: 101%
- viability, T/C [16]: 102%
- viability, T/C [17]: 105%
- viability, T/C [18]: 89.2%
- viability, T/C [19]: 105%
- viability, T/C [20]: 101%
- viability, T/C [21]: 101%
- viability, T/C [22]: 97.2%
- viability, T/C [23]: 105%
- viability, T/C [24]: 91.6%
- viability, T/C [25]: 102%
- viability, T/C [26]: 99%
- viability, T/C [27]: 102%
- viability, T/C [28]: 98.9%
- viability, T/C [29]: 101%
- viability, T/C [30]: 89.6%
- viability, T/C [31]: 103%
- viability, T/C [32]: 95%
- viability, T/C [33]: 102%
- viability, T/C [34]: 95.5%
- viability, T/C [35]: 101%
- viability, T/C [36]: 85.3%
- viability, T/C [37]: 98.3%
- viability, T/C [38]: 96.5%
- viability, T/C [39]: 98.7%
- viability, T/C [40]: 92.9%
- viability, T/C [41]: 81.6%
- viability, T/C [42]: 29.9%

SMILES: CC1COCCN1c1cc(-c2ccnn2C)c2ccnc(-c3ccn[nH]3)c2n1 (stereo not given)
- viability, T/C (compound 0.0316 µM): 102% and 89.6% and 107%
- viability, T/C (compound 0.1 µM): 66.9% and 60.1% and 93.3%
- viability, T/C (compound 0.316 µM): 23.1% and 29.1% and 69.8%
- viability, T/C (compound 1 µM): 11.8% and 12.8% and 36.8%
- viability, T/C (compound 3.16 µM): 9.13% and 7.87% and 19.7%
- viability, T/C (compound 10 µM): 10.8% and 9.87% and 13.7%
- IC50 (curve of compound): 0.156 µM and 0.146 µM and 0.63 µM

SMILES: COc1ccc([C@@H](O)c2cc(-c3ncnc4cc(N5CCOCC5)ccc34)c(F)cc2Cl)nn1
- viability, T/C (compound 0.0316 µM): 95.5% and 103% and 107%
- viability, T/C (compound 0.1 µM): 84.6% and 101% and 89.6%
- viability, T/C (compound 0.316 µM): 99.2% and 98.3% and 96.1%
- viability, T/C (compound 1 µM): 92.9% and 97.3% and 99.2%
- viability, T/C (compound 3.16 µM): 78.1% and 90.2% and 83.4%
- viability, T/C (compound 10 µM): 57% and 75% and 62.1%
- IC50 (curve of compound): > 10 µM

SMILES: COC1C(OC(N)=O)C(O)C(Oc2ccc3c(O)c(NC(=O)c4ccc(O)c(CC=C(C)C)c4)c(=O)oc3c2C)OC1(C)C (stereo not given)
- viability, T/C (compound 0.0316 µM): 100% [middle of 13 runs]
- viability, T/C (compound 0.1 µM): 102% [middle of 13 runs]
- viability, T/C (compound 0.316 µM): 98.2% [middle of 13 runs]
- viability, T/C (compound 1 µM): 101% [middle of 13 runs]
- viability, T/C (compound 3.16 µM): 97.6% [middle of 13 runs]
- viability, T/C (compound 10 µM): 93.8% [middle of 13 runs]
- IC50 (compound alone, run of 10/31/2023): > 10 µM
